Reference: patent US20110195432A1, “METHODS FOR THE SELECTION OF THERAPEUTIC TREATMENTS FOR CANCER” (priority 2008, published 2011)
Entries after “also recorded” stand apart in the source; their conditions may differ.

How the values were obtained:
[1] = test system: PSA and TMPRSS2-ERG; conditions: VCaP cells; 24 hours; increasing doses; vehicle set to 1
Description: To determine the functional consequences of sulforaphane-mediated reduction in AR protein levels, real-time PCR was conducted for several AR target genes, including PSA and the TMPRSS2-ERG gene fusion present in VCaP cells (FIGS. 5A-C). Cells were lysed in Trizol (Invitrogen, Carlsbad, Calif.) and then purified with the RNAEasy Kit (Qiagen, Valencia, Calif.). One μg of RNA was reverse-transcribed using the Omniscript RT kit (Qiagen, Valencia, Calif.). Real-time PCR primer sequences and conditions were as follows.
The real-time PCR program consisted of: 50° C. for 2 minutes for 1 cycle; 95° C. for 10 minutes for 1 cycle; 95° C. for 15 seconds and 60° C. for 15 seconds for a total of 40 cycles. Standard curves were generated by measuring expression of target genes and 18S rRNA in serial dilutions of a mock-treated control. All samples were run in triplicate. The vehicle-treated sample was set to 1.

[2] = test system: PSA; test: Real-time PCR of AR target gene expression, LNCaP cells; format: cell-based; conditions: increasing doses, vehicle set to 1
From the text: (§1) All samples were run in triplicate. The vehicle-treated sample was set to 1.

[3] = test system: AR; test: Western blot of AR protein levels, LNCaP cells; format: cell-based
[4] = test system: acetylated alpha-tubulin; test: Western blot of acetylated alpha-tubulin, LNCaP cells; format: cell-based
Description: The vehicle sample was set to 1.
LNCaP cells were transiently transfected with either a siRNA sequence complementary to the luciferase gene ([…]; SEQ ID NO: 8) or to HDAC6 ([…]; SEQ ID NO: 9) using DharmaFECT 3 transfection reagent for a final concentration of 100 nM (Dharmacon, Lafayette, Colo.). At 48, 72, and 96 hours post-transfection, cells were harvested. Levels of protein expression by Western blot were quantified.

[5] = test system: HDAC6; conditions: LNCaP cells; sulforaphane versus vehicle
Description: as §1
LNCaP cells were transiently transfected with pCDNA3.1 empty vector (Invitrogen, Carlsbad, Calif.) or FLAG-tagged HDAC6 expression vector (Addgene, Cambridge, Mass.) using Lipofectamine LTX and Plus reagents (Invitrogen, Carlsbad, Calif.). Forty-eight hours later, media was replaced for a 16-hour treatment with […] sulforaphane or vehicle. Levels of FLAG, HDAC6, AR, acetylated alpha-tubulin, and actin were measured by Western blot.

[6] = test system: HDAC6; test: Western blot of HDAC6 protein levels, LNCaP cells; format: cell-based
[7] = test system: AR; test: Real-time PCR of AR gene expression, VCaP cells; format: cell-based
From the text: as §1

[8] = test system: AR; test: Real-time PCR of AR gene expression, LNCaP cells; format: cell-based
From the text: as §1

[9] = test system: AR; test: Western blot of AR protein levels, LNCaP cells; format: cell-based; remark: listed apart in the source
Description: (§2) Immunoprecipitation and immunoblotting were performed as described (Qian et al., Clin. Cancer Res. 12:634-42, 2006). The following antibodies used in immunoblotting or immunoprecipitations (indicated dilutions are for immunoblotting): AR (1:1000, #06-680 Upstate, Billerica, Mass.); acetylated lysine (#05-515 Upstate, Billerica, Mass.); acetylated tubulin (1:2000, #T6793 Sigma, St. Louis, Mo.); alpha-tubulin (1:10,000, #T6074 Sigma, St. Louis, Mo.); beta-actin (1:5000, #A5441 Sigma, St. Louis, Mo.); ERG-1/2/3, (1:5000, #sc-354X Santa Cruz, Santa Cruz, Calif.); FLAG epitope (#F7425 Sigma, St. Louis, Mo.); GAPDH (1:5000, #sc-32233 Santa Cruz, Santa Cruz, Calif.); HDAC6 (1:1000, #sc-11420 Santa Cruz); HSP90 (1:1000, #SPA-840 Stressgen, Ann Arbor, Mich.); mouse IgG (#sc-2025 Santa Cruz, Santa Cruz, Calif.). The following secondary antibodies were used: ECL-conjugated anti-mouse IgG, (1:5000, #A6782 Sigma, St. Louis, Mo.); ECL-conjugated anti-rabbit IgG (1:3000, #NA934 Amersham, Piscataway, N.J. or 1:10,000, #sc-2004 Santa Cruz, Santa Cruz, Calif.). X-ray exposures were scanned as uncompressed images and bands were quantified by densitometry with Quantity One software (Bio-Rad, Hercules, Calif.). Intensity values were normalized to those of the endogenous controls. The vehicle sample was set to 1. Enrichment was calculated as: (intensity IP/intensity input)/(intensity IgG/intensity input) or intensity IP/input (FIG. 1B).
LNCaP cells were treated with sulforaphane in a dose-response (5 μM to 20 μM) and time-course (12 and 24 hours) manner to investigate the effect of HDAC6 inhibition on AR protein levels. Western blotting was performed as described in Example 1. […]

[10] = test system: PSA ARE; conditions: LNCaP cells; 20 μM sulforaphane, 24 hours; versus vehicle-treated cells
Description: To determine whether AR protein depletion from its target genes' androgen response elements (AREs) was responsible for reduced target gene expression, chromatin immunoprecipitation (ChIP) was performed. Cells were cross-linked with formaldehyde and reactions were stopped with glycine. Crosslinked cells were re-suspended in RIPA with SigmaFast protease inhibitors tablets (Sigma, St. Louis, Mo.) and sonicated on ice using a Branson Digital Sonifer model 450 (Branson Ultrasonics Co., Danbury, Conn.). Sonicated cellular lysates were used for Matrix ChIP (Flanagin et al., Nucleic Acids Res 36: e17, 2008) Immunoprecipitations were performed without adding an antibody or with 500 ng of an anti-AR antibody. PCR reactions were amplified using a thermocycler (see supplementary methods). ChIP PCR primer sequences were as follows:
Primers were synthesized by IDT (Coralville, Iowa). ChIP PCR program consisted of: 95° C. for 5 minutes for 1 cycle; 95° C. for 30 seconds, 58° C.(TMPRSS2-ERG) or 60° C. (PSA) for 30 seconds, and 72° C. for 30 seconds for 35-40 cycles; 72° C. final extension for 5 minutes. […] Bands were imaged for densitometry using a Gel Doc XR UV transilluminator and Quantity One software (Bio-Rad, Hercules, Calif.).

[11] = test system: AR; test: Western blot of AR protein levels, VCaP cells; format: cell-based; conditions: 24 hours
[12] = test system: ERG; conditions: VCaP cells; 20 μM sulforaphane, 24 hours; treated in parallel with ChIP
Description: as §2, with “The vehicle sample was set to 1.” left out

[13] = FLAG-HDAC6 transfected LNCaP cells, sulforaphane-treated, versus empty-vector, sulforaphane-treated cells
[14] = empty-vector transfected LNCaP cells, 16-hour treatment with 15 nM sulforaphane versus vehicle

C[S+]([O-])CCCCN=C=S (stereo not drawn) [sulforaphane, 1-Isothiocyanato-4-methylsulfinylbutane]
AR target gene expression (PSA, TMPRSS2-ERG) [1]: dose-dependent reduction | AR target gene expression (PSA) [2]: dose-dependent reduction | levels of AR in input whole cell lysate ([3]; 4 hour treatment, vehicle versus sulforaphane): similar | AR protein depletion in HDAC6-over-expressing cells [3, 13]: attenuated | AR protein levels ([3]; LNCaP cells, 12 hours, highest doses tested (10-20 μM)): decreased | onset of AR protein decline ([3]; after sulforaphane treatment): 6 to 12 h | AR protein [3, 14]: decreased | alpha-tubulin acetylation in HDAC6-over-expressing cells [4, 13]: blunted | acetylated tubulin [4, 14]: increased | levels of acetylated tubulin in input whole cell lysate ([4]; sulforaphane 20 μM, 4 hours, versus vehicle): increased levels of acetylated alpha-tubulin | HDAC6 transcript levels [5]: reduce HDAC6 transcript levels | HDAC6 protein levels at later time points ([6]; 16 hours): reduced HDAC6 protein levels | HDAC6 protein expression in HDAC6-over-expressing cells [6, 13]: restored | HDAC6 protein levels with concomitant proteasome inhibitor ([6]; LNCaP cells, 16 hours, 20 μM sulforaphane with 20 μM MG132 versus sulforaphane-treated cells): restored HDAC6 protein levels | levels of HDAC6 in input whole cell lysate ([6]; LNCaP cells, early time point, 4 hours, versus vehicle): similar; also recorded: without changing its levels | HDAC6 protein levels [6, 14]: reduced | AR transcript levels at highest doses ([7]; 15-20 μM): declined | AR transcripts ([7]; 24 hours, increasing doses of sulforaphane, or TSA, vehicle set to 1): not consistently suppressed | AR transcript levels at highest dose ([8]; 20 μM): declined | AR transcripts ([8]; increasing doses of sulforaphane, or TSA, vehicle set to 1): not consistently suppressed | AR steady state level with simultaneous MG132 treatment ([9]; 24 hours, sulforaphane 20 μM or 300 nM TSA with 10 μM MG132): restored the AR steady state level close to that seen in the vehicle-treated control | AR protein in the absence of MG132 ([9]; 24 hours, sulforaphane 20 μM or 300 nM TSA, versus vehicle-treated cells): dramatic reductions | AR protein levels at 24 hours ([9]; sulforaphane 15 μM and 20 μM, TSA): persisted | enrichment of AR at the PSA ARE [10]: reduced enrichment | levels of AR protein in whole cell lysates ([11]; 20 μM sulforaphane, treated in parallel with ChIP): near absent levels | AR protein levels ([11]; all sulforaphane dose levels): declined | levels of ERG protein in whole cell lysates [12]: near absent levels
